This experiment has as its system SERCA2a SUMOylation. Nature of the experiment: Endogenous SERCA2a SUMOylation, SUMO-1 conjugates and Ubc9 in cardiomyocytes (immunoprecipitation / western blot). It is filed as cell-based, Sprague–Dawley rats. As to the method: Figure 1 N106 increases SERCA2a’s cellular activity and SUMOylation in adult cardiomyocytes. In-vitro characterization of activators of SERCA2a SUMOylation. Cell-based screening of small molecules identified one promising compound. Adult ventricular cardiomyocytes were isolated from Sprague–Dawley rats and treated with small molecules on dose-dependent manner for 24 h. DMSO-treated cardiomyocytes were used as a negative control. (a) Chemical structure of SERCA2a SUMOylation activator. N106, N-(4-methoxybenzo[d]thiazol-2-yl)-5-(4-methoxyphenyl)-1,3,4-oxadiazol-2-amine. (b-g) The effects of N106 compound in cardiomyocyte contractility and calcium transient. The dose-dependent effects of N106 compound presented on peak shortening, the time to maximal departure velocity, the time to maximal return velocity, calcium ratio, decay time constant (τ) and the time to 90% baseline (t90) fluorescence in cardiomyocytes were assessed using a video-based edge-detection system (IonOptix Inc.). n=25 cardiomyocytes from each three of hearts per condition. (h) The effects of N106 compound on the ATPase activity of SERCA2a. The ATPase activity were measured at 25 °C in 50 mM MOPS, 100 mM KCl, 5 mM MgCl2, 1 mM […] at pCa 5.0 by using a coupled enzyme system consisting of pyruvate kinase and lactate dehydrogenase, and monitoring the oxidation of the reduced form of NADH at […]. The enzyme activity was determined by using same set of cardiomyocytes. (i) The effect of N106 compound for the formation of SUMOylated SERCA2a was determined using the same set of cardiomyocytes. Endogenous SERCA2a SUMOylation was detected by immunoprecipitation with anti-SERCA2a and then western blotting with anti-SUMO-1 antibodies. The experiments shown are representative of three independent experiments with similar results. (j) The effect of N106 compound on global SUMOylation was measured by western blot analysis with an anti-SUMO-1 antibody in the same set of cardiomyocytes. The experiments shown are representative of three independent western blottings. Data are represented as mean±s.e.m. (n=3 mice hearts per each condition). Data are represented as mean±s.e.m. *P≤0.05; **P<0.001 (Student’s t-test) from DMSO control.
Protein extracts (20∼50 μg) were obtained from isolated cardiomyocytes, which was lysed in RIPA buffer (R&D Systems Inc., MN, USA) contained protease inhibitors (Complete mini, Roche Diagnostics, IN, USA) and 20 mM NEM (Sigma-Aldrich). For SERCA2a SUMOylation assays, cardiac protein extracts were immunoprecipitated with a SUMO-1 agarose resin (Santa Cruz Biotechnology Inc., CA, USA) for overnight at 4 °C. The resins were washed with cold lysis buffer three times. The immunocomplexes were then resolved by SDS–PAGE and western blot analysis was performed using a SERCA2a-specific antibody. […]
treated with small molecules were determined: peak shortening (b) and calcium transient (c). […]

Entries after “also recorded” stand apart in the source; their conditions may differ.

On to `COc1ccc(-c2nnc(Nc3nc4c(OC)cccc4s3)o2)cc1` [Compound N106, N-(4-methoxybenzo[d]thiazol-2-yl)-5-(4-methoxyphenyl)-1,3,4-oxadiazol-2-amine], for which, under “10 μM, 24 h”, the “endogenous SERCA2a SUMOylation” value is reported as “enhancement of endogenous SERCA2a SUMOylation; also recorded: significantly induced” and the “protein levels of E2 conjugation enzyme, Ubc9” value is “without upregulation of Ubc9”. In addition, where the note is “10 μM, 10∼30 min, sustained at 24 h”, the “SERCA2a SUMOylation, time course” value was “increased”. For the same compound, the “whole SUMO-1 conjugates” value (in response to the concentration of N106, 24 h) is listed as “increased”. For the same compound, the “levels of SERCA2a SUMOylation” value (increasing N106 concentration, 24 h) is listed as “increased”.

The record behind these values is paper PMC4467461, “Small-molecule activation of SERCA2a SUMOylation for the treatment of heart failure” (Nature Communications, 2015).
